≈ marks a conversion by molar mass, not a printed value. Where two headings read alike, the source gives them in different places.
What was measured:
C. krusei ATCC 6258 = test: Anti-Fungal (Candida) Activity Assay, broth microtiter MIC; type: cell-based; conditions: Pichia kudriavzevii, ATCC6258; 3 replicates, MIC recorded at 48 h; read-out: MIC C. krusei ATCC 6258
Method in brief: (§1)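 Broth microdilution per CLSI M27-A3 in RPMI 1640 + MOPS, with inocula from colonies grown 24 h at 35 °C on Sabouraud dextrose agar and set by standard curve. Compounds came from 1 mg/mL DMSO stocks. MIC was read visually against the growth control at 48 h.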

[1] = test system: C. parapsilosis ATCC 22019; test: as above; type: cell-based; conditions: Lodderomyces parapsilosis, ATCC22019; 3 replicates, MIC recorded at 48 h; read-out: MIC C. parapsilosis ATCC 22019
Method in brief: as §1

C. albicans ATCC 90028 = test: as above; type: cell-based; conditions: ATCC90028, 3 replicates, MIC recorded at 48 h, read-out: MIC C. albicans ATCC 90028
Method in brief: as §1

human (hACC2) ACC2 = human (hACC2) ACC2 (Homo sapiens, UniProt O00763); test: In vitro Acetyl-CoA Carboxylase (ACC) inhibition assay (ADP-Glo), hACC2; type: biochemical
Chain of human (hACC2) ACC2 (O00763 whole entry): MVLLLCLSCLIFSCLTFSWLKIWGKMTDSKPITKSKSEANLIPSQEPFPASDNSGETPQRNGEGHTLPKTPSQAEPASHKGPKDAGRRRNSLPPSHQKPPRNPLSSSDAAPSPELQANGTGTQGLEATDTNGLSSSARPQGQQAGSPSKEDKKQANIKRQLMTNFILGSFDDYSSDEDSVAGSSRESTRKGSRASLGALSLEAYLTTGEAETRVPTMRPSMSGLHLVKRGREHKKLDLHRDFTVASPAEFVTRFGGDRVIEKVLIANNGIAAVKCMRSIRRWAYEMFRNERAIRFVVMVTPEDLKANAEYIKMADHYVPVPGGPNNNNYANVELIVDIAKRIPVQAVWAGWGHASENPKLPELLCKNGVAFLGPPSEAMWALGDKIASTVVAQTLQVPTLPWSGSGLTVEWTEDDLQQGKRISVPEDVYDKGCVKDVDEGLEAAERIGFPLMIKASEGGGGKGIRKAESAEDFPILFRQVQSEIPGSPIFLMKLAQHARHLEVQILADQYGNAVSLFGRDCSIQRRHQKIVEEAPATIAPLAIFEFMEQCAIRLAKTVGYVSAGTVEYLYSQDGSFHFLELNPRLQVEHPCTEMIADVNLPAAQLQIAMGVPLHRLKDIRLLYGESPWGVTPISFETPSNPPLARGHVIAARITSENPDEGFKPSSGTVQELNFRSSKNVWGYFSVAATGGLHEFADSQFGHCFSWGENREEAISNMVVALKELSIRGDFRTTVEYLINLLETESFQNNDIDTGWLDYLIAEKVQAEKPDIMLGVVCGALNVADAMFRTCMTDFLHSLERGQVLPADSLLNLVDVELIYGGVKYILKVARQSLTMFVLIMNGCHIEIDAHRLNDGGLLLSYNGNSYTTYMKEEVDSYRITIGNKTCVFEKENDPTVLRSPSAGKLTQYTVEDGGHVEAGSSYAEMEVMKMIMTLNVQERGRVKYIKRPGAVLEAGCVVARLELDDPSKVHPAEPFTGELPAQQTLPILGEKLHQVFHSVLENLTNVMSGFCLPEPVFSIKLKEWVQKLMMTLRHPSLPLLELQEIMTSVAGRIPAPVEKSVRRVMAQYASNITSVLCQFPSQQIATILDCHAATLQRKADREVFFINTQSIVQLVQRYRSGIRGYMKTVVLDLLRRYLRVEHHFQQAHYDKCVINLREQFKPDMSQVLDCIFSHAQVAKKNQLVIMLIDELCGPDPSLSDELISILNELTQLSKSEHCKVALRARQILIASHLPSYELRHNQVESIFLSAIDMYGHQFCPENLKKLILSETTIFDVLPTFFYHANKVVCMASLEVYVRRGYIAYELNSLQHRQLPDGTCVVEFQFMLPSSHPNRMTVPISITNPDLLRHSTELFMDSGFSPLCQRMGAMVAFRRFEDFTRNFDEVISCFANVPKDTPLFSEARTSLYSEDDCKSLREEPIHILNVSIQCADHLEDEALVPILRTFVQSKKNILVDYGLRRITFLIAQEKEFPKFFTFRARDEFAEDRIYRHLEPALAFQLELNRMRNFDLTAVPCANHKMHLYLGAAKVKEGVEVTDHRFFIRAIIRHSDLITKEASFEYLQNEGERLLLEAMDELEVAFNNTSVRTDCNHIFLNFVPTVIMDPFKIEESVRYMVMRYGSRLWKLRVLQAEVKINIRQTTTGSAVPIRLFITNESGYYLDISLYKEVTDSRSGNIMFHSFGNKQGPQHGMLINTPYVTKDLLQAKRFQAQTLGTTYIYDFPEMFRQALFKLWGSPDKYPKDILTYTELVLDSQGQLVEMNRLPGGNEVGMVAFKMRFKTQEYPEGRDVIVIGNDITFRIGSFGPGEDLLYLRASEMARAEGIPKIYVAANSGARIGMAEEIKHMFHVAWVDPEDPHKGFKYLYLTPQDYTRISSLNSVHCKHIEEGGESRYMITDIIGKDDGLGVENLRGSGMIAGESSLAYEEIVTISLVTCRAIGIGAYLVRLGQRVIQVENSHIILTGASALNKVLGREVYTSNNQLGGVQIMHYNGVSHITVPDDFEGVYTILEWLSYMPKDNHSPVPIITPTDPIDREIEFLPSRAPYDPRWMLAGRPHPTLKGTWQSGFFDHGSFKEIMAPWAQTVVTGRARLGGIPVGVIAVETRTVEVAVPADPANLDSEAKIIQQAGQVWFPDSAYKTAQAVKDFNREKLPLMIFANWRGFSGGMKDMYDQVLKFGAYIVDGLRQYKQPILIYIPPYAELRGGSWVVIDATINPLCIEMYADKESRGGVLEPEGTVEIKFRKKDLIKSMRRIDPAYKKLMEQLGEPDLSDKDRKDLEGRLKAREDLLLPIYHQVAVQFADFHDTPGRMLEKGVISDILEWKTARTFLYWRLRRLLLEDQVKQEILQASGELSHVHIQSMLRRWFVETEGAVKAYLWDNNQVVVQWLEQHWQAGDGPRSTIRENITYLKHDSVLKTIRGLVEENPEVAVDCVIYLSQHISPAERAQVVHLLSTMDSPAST
Experimental: The detailed procedure is as follows. […] 10 μL ADP glo reagent was added. […] 20 μL kinase detection reagent was added.
“NA” stands for “not assayed.”

fungal (fACC2) ACC2 = fungal (fACC2) ACC2 (UniProt Q00955); conditions: read-out: fACC2 IC50; fungal ACC2, ADP-Glo
Chain of fungal (fACC2) ACC2 (Q00955 whole entry): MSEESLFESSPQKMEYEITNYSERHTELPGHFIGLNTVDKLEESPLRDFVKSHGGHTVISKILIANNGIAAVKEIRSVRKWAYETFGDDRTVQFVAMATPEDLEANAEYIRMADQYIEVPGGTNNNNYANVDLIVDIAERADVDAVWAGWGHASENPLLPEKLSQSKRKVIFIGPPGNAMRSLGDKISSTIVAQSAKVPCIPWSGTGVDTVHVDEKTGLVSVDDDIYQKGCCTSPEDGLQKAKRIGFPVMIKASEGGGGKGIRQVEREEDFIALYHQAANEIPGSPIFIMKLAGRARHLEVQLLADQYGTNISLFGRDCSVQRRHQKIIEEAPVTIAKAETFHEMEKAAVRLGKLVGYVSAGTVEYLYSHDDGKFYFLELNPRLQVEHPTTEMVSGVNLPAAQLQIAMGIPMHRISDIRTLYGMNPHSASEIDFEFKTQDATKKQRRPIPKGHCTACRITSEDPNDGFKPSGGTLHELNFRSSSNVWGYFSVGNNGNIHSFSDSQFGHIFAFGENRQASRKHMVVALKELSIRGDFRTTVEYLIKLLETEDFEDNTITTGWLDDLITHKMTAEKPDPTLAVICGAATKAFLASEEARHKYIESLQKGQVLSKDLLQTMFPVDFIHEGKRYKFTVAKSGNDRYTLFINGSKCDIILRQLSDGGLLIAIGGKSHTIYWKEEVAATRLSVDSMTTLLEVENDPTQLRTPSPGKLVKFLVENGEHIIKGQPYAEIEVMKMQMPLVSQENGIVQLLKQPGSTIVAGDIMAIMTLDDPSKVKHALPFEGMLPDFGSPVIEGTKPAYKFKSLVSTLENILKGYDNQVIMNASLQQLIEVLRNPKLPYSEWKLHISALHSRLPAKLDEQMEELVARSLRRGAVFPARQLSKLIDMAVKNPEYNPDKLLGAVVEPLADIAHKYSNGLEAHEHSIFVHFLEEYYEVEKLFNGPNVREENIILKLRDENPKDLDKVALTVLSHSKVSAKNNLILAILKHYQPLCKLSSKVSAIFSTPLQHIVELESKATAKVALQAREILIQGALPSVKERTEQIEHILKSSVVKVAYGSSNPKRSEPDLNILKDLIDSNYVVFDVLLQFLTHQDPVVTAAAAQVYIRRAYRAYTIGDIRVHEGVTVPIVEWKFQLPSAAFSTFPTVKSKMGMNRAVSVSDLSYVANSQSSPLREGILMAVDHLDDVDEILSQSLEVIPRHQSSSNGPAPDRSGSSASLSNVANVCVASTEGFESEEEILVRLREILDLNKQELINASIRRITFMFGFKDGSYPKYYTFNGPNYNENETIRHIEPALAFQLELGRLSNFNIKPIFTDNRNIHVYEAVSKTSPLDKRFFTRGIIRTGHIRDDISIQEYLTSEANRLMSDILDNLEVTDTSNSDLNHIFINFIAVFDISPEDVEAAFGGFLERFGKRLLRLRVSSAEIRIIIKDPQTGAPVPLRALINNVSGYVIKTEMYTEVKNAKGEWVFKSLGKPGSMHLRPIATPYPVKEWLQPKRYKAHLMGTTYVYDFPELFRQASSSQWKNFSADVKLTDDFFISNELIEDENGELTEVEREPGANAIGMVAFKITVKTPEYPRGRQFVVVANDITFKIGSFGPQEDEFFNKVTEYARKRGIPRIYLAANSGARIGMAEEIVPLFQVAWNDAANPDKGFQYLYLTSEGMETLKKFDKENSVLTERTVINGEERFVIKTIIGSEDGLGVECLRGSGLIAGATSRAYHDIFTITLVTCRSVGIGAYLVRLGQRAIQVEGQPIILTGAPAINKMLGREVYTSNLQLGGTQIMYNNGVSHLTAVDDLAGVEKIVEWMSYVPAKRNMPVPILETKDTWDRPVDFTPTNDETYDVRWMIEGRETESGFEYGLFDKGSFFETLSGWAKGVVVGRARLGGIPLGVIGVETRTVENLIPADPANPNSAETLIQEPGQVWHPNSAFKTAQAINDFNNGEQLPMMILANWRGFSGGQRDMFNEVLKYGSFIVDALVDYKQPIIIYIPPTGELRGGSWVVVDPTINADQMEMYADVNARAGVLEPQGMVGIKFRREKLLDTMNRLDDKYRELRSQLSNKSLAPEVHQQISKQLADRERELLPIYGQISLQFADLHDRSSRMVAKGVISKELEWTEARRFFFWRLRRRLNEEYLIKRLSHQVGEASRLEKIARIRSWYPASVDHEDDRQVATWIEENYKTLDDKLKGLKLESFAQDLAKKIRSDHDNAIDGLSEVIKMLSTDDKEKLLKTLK

[2] = test system: Phytophthora capsici (Pc); test: Growth inhibition assay of fungal pathogens; type: cell-based; conditions: 48 hours; for IC90: Phytophthora capsici, read-out: Concentration at 90% Inhibition Pc
Method in brief: (§2)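 Liquid-culture assay in which test compounds are applied at three final concentrations (50, 10, 2 ppm or 2, 0.4, 0.08 ppm). Inoculum levels follow 48 h growth curves for each fungus. Growth is monitored by OD600 and by eye, and the 48 h values give % inhibition against DMSO.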

Septoria tritici (St) = test: Growth inhibition assay of fungal pathogens; type: cell-based; conditions: 48 hours; for IC90: Zymoseptoria tritici, read-out: Concentration at 90% Inhibition St
Method in brief: as §2

Rhizoctonia solani (Rs) = test: Growth inhibition assay of fungal pathogens; type: cell-based; conditions: 48 h, read-out: Concentration at 90% Inhibition Rs
Method in brief: as §2

[3] = test system: Fusarium moniliforme (Fm); test: Growth inhibition assay of fungal pathogens; type: cell-based; conditions: Fusarium verticillioides, 48 h, 48 hours, read-out: Concentration at 90% Inhibition Fm
Method in brief: as §2

Diplodia maydis (Dm) = test: Growth inhibition assay of fungal pathogens; type: cell-based; conditions: Stenocarpella maydis, 48 h, read-out: Concentration at 90% Inhibition Dm
Method in brief: as §2

Botrtyis cinerea (Bc) = test: Growth inhibition assay of fungal pathogens; type: cell-based; conditions: 48 h, read-out: Concentration at 90% Inhibition Bc
Method in brief: as §2

[4] = test system: Fusarium virguliforme (Fv); test: Growth inhibition assay of fungal pathogens; type: cell-based; conditions: 48 h, 48 hours, read-out: Concentration at 90% Inhibition Fv
Method in brief: as §2

[5] = test system: Collectotrichum graminicola (Cg); test: Growth inhibition assay of fungal pathogens; type: cell-based; conditions: 48 h, read-out: Concentration at 90% Inhibition Cg
Method in brief: as §2

SMILES | MIC (C. krusei ATCC 6258) | MIC [1] | MIC (C. albicans ATCC 90028) | IC50 (human (hACC2) ACC2) | IC50 (fungal (fACC2) ACC2) | also measured
COCCO[C@@H](Cn1c(=O)n(C(C)C(=O)N2CCCC2)c(=O)c2c(C)c(-n3cccn3)sc21)c1cc(F)ccc1OC (mixture of isomers) [Compound I-54, 1-((R)-2-(5-fluoro-2-methoxyphenyl)-2-(2-methoxyethoxy)ethyl)-5-methyl-3-(1-oxo-1-(pyrrolidin-1-yl)propan-2-yl)-6-(1H-pyrazol-1-yl)thieno[2,3-d]pyrimidine-2,4(1H,3H)-dione] | > 4.1 µg/mL | > 4.1 µg/mL | > 4.1 µg/mL | 10 to 40 nM | 0.6 to 3 nM | –
COc1ccc(F)cc1[C@H](Cn1c(=O)n(C(C)(C)C(=O)NC(C)C)c(=O)c2c(C)c(-n3cccn3)sc21)OCCO [Compound I-35, (R)-2-(1-(2-(5-fluoro-2-methoxyphenyl)-2-(2-hydroxy-ethoxy)ethyl)-5-methyl-2,4-dioxo-6-(1H-pyrazol-1-yl)-1,4-dihydrothieno[2,3-d]pyrimidin-3(2H)-yl)-N-isopropyl-2-methylpropanamide] | – | – | – | 10 to 40 nM | 0.6 to 3 nM | IC90 ([2]; Table 4a): > 50 µg/mL; Concentration at 90% Inhibition Pc ([2]; Table 4b): D (“D” provided a compound concentration of >50 ppm at 90% inhibition of fungal pathogens); Concentration at 90% Inhibition St (Septoria tritici (St); Table 4b): D (“D” provided a compound concentration of >50 ppm at 90% inhibition of fungal pathogens); IC90 (Septoria tritici (St); Table 4a): > 50 µg/mL; IC90 (Rhizoctonia solani (Rs); Table 4a): 2 µg/mL (≈ 3.4 µM); IC90 (Rhizoctonia solani (Rs); Table 4b): 2 µg/mL (≈ 3.4 µM); IC90 ([3]; Table 4a): 0.4 µg/mL (≈ 0.681 µM); IC90 ([3]; Table 4b): 0.4 µg/mL (≈ 0.681 µM); IC90 (Diplodia maydis (Dm); Table 4a): > 50 µg/mL; IC90 (Diplodia maydis (Dm); Table 4b): 10 µg/mL (≈ 17 µM); IC90 (Botrtyis cinerea (Bc); Table 4a): 2 µg/mL (≈ 3.4 µM); IC90 (Botrtyis cinerea (Bc); Table 4b): 2 µg/mL (≈ 3.4 µM); IC90 ([4]; Table 4a): 2 µg/mL (≈ 3.4 µM); IC90 ([4]; Table 4b): 2 µg/mL (≈ 3.4 µM); IC90 ([5]; Table 4a): 2 µg/mL (≈ 3.4 µM); IC90 ([5]; Table 4b): 2 µg/mL (≈ 3.4 µM)
COCCO[C@@H](Cn1c(=O)n(C(C)(C)C(=O)N2CCCC2)c(=O)c2c(C)c(-n3cccn3)sc21)c1cc(F)ccc1OC [Compound I-44, (R)-1-(2-(5-fluoro-2-methoxyphenyl)-2-(2-methoxy-ethoxy)ethyl)-5-methyl-3-(2-methyl-1-oxo-1-(pyrrolidin-1-yl)propan-2-yl)-6-(1H-pyrazol-1-yl)thieno[2,3-d]pyrimidine-2,4(1H,3H)-dione] | – | – | – | > 40 nM | 3 to 10 nM | IC90 ([2]; Table 4b): > 50 µg/mL; IC90 (Septoria tritici (St); Table 4b): > 50 µg/mL; IC90 (Rhizoctonia solani (Rs); Table 4b): > 50 µg/mL; IC90 ([3]; Table 4b): 10 µg/mL (≈ 16.3 µM); IC90 (Diplodia maydis (Dm); Table 4b): > 50 µg/mL; IC90 (Botrtyis cinerea (Bc); Table 4b): > 50 µg/mL; IC90 ([4]; Table 4b): 10 µg/mL (≈ 16.3 µM); IC90 ([5]; Table 4b): > 50 µg/mL
Cc1c(-n2cccn2)sc2c1c(=O)n(C(C)(C)C(=O)NC(C)C)c(=O)n2C[C@H](OC1CCOCC1)c1cc(F)ccc1OCCO [Compound I-48] | > 4.1 µg/mL | > 4.1 µg/mL | > 4.1 µg/mL | 3 to 10 nM | 0.6 to 3 nM | –
COCCOc1ccc(F)cc1[C@H](Cn1c(=O)n(C(C)(C)C(=O)NC(C)C)c(=O)c2c(C)c(-n3cccn3)sc21)OC1CCOCC1 [Compound I-49] | 1.1 to 2 µg/mL (≈ 1.64 to 2.98 µM) | > 4.1 µg/mL | > 4.1 µg/mL | 3 to 10 nM | 0.6 to 3 nM | –
Cc1c(-n2cccn2)sc2c1c(=O)n(C(C)(C)C(=O)NC(C)C)c(=O)n2C[C@H](OC1CCOCC1)c1cc(F)ccc1OCC1COC1 [Compound I-50] | > 4.1 µg/mL | > 4.1 µg/mL | > 4.1 µg/mL | 3 to 10 nM | 0.6 to 3 nM | –
Cc1c(-n2cccn2)sc2c1c(=O)n(C(C)(C)C(=O)N1CCCC1)c(=O)n2C[C@H](OC1CCOCC1)c1cc(F)ccc1OCCO [Compound I-51] | 0.25 to 1 µg/mL (≈ 0.373 to 1.49 µM) | 2.1 to 4 µg/mL (≈ 3.14 to 5.97 µM) | 1.1 to 2 µg/mL (≈ 1.64 to 2.99 µM) | 3 to 10 nM | 0.6 to 3 nM | –
COCCOc1ccc(F)cc1[C@H](Cn1c(=O)n(C(C)(C)C(=O)N2CCCC2)c(=O)c2c(C)c(-n3cccn3)sc21)OC1CCOCC1 [Compound I-52] | 1.1 to 2 µg/mL (≈ 1.61 to 2.92 µM) | 1.1 to 2 µg/mL (≈ 1.61 to 2.92 µM) | 2.1 to 4 µg/mL (≈ 3.07 to 5.85 µM) | 3 to 10 nM | 0.6 to 3 nM | –
Cc1c(-n2cccn2)sc2c1c(=O)n(C(C)(C)C(=O)N1CCCC1)c(=O)n2C[C@H](OC1CCOCC1)c1cc(F)ccc1OCC1COC1 [Compound I-53] | 1.1 to 2 µg/mL (≈ 1.58 to 2.87 µM) | 2.1 to 4 µg/mL (≈ 3.02 to 5.75 µM) | > 4.1 µg/mL | 3 to 10 nM | 0.6 to 3 nM | –
